{"source": "patent US20160051704A1", "about": "“MOLECULAR IMAGING PROBES FOR LUNG CANCER INTRAOPERATIVE GUIDANCE” (H. Lee Moffitt Cancer Center and Research Institute, Inc., priority 2013, published 2016)", "key": {"[1]": {"test_system": "HCT-116/δOR (δOR+) tumor relative to HCT-116 (δOR−) tumor", "format": "in vivo, mice", "method": "(§1) The inventors evaluated a synthetic peptide δ-opioid receptor (δOR) antagonist Dmt-Tic (FIG. 8) conjugated to two different fluorescent dyes, Cy5 and IR800CW, as further discussed below. The pharmacokinetics (PK) of Dmt-Tic-Cy5 was evaluated in a subcutaneous xenograft model using HCT-116 cells (δOR−) and HCT-116 cells that were engineered to overexpress the δOR (δOR+). Tumor uptake of Dmt-Tic-Cy5 was also studied by intravital fluorescence microscopy using a dorsal skin-fold window chamber tumor xenograft model.\nFor PK experiments, mice were injected with 4.5 nmol/kg Dmt-Tic-Cy5 i.v. and images acquired at various time points from 0-168 h ([…]). Graphs 9B and 9C depict the mean fluorescent signal obtained from the δOR− tumors and δOR+ tumors over a time course of 0-168 h. Graph […] depicts the mean fold of enhancement (δOR+ tumor signal/δOR− tumor signal) over time. The tumor signals were quantified, averaged (n≧3 for each time point), and plotted over time. The graphs 9B and 9C show maximum probe uptake in the δOR+ tumor at 3 h. FIG. 9D depicts the maximum signal fold of enhancement (27±9 s.d.) at 18 h in δOR+ relative to δOR− tumors.\nMice then were tail vein injected with 10 μg of ligand 1 and images were acquired at different times post-injection using a VersArray 1300B cooled CCD camera, a filtered fiberoptic light source and a tunable emission filter (CRI, Inc.). After 15 min post-injection, the fluorescence intensity maps indicated systemic presence of the compound with high intensity throughout the animal (not shown). […] Histograms were generated for each ROI, and mean fluorescence intensities were determined for each time point. […]\nInitial experiments were performed using the HCT-116 parental cell line and HCT-116/δOR engineered cells in a bilateral flank subcutaneous xenograft model in mice. […] Mice were injected intravenously with the designated concentrations of Dmt-Tic-IR800 and fluorescence imaging was performed at various time points post-injection using the IVIS200 imaging system. […]"}, "[2]": {"test_system": "DMS-53 (δOR+) tumor relative to H1299 (δOR−) tumor", "experiment": "In vivo fluorescence imaging, bilateral subcutaneous lung cancer xenografts with endogenous δOR expression", "design": "species or system mice", "settings": "for tumor selectivity in fluorescence image: 40 nmol/kg, 24 h post-administration", "method": "Mice were subcutaneously injected with H1299 (δOR−) (12 million cells of 100 uL per injection) and DMS-53 (δOR+) (20 million cells at 100 uL per injection) cells in the left and right flanks, respectively. Tumors were grown for 3 weeks after subcutaneous injection.\nA dose determination assay was performed to find the optimal concentration of Dmt-Tic-IR800 for further experiments. A higher concentration of the imaging agent in these experiments was needed due to the lower receptor number. Based on previous work with fluorescent imaging agents targeting different receptors in endogenous expressing cell lines, the inventors selected concentrations of 40 nmol/kg, 80 nmol/kg, and 160 nmol/kg. (Huynh A S, Chung W J, Cho H I, Moberg V E, Celis E, Morse D L, Vagner J. Novel Toll-like Receptor 2 Ligands for Targeted Pancreatic Cancer Imaging and Immunotherapy. J Med Chem. 2012; 55(22):9751-62) Fluorescence imaging was performed using the IVIS200 imaging system at various time points following intravenous administration of Dmt-Tic-IR800. For the bilateral flank subcutaneous xenograft model using endogenously expressing cells the optimal dose was 40 nmol/kg.\nFluorescence imaging of mice bearing H1299 (δOR−) cells in the left flank and DMS-53 (δOR+) cells in the right flank was performed using the Optix MX3 imaging system and a 40 nmol/kg dose of Dmt-Tic-IR800. […] FIG. 28 is a series of in vivo fluorescence images taken at different time points of mice bearing the xenograft tumors of lung cancer cell lines with positive endogenous expression (DMS-53) and non-expression (H1299). […] FIG. 30 is a series of graphs depicting the quantified values from in vivo imaging of the lung cancer xenograft tumors using the Optix MX-3 imaging instrument by ART. FIG. 31 is a series of representative images depicting the ex vivo fluorescence imaging of excised positive tumor, negative tumor, liver, lungs, kidneys and GI tract following intravenous administration of the Dmt-Tic-IR800 agent. […]\nFor dose determination assays on the Xenogen IVIS-200, images were analyzed using Living Image Software (v3.2). […]"}, "[3]": {"experiment": "In vivo pharmacokinetic (PK) and biodistribution (BD) profiles of fluorescent conjugates"}, "[4]": {"test_system": "DMS-53 luc+ (DOR+) orthotopic lung tumor", "experiment": "Orthotopic model of lung cancer, fluorescence molecular tomography", "format": "in vivo, mice", "settings": "40 nmol/kg i.v.; 0 to 48 hours", "method": "In the orthotopic model of lung cancer, the mice undergo a minor surgical procedure during which DMS-53 luc+ (DOR+) cells are injected directly in the left lung. The growth of the tumors is monitored using bioluminescence imaging (FIG. 33A). The PK of DORL-800 was studied in this model by injecting mice intravenously with DORL-800 (40 nmol/kg) and acquiring images at various time points from 0 to 48 hours using fluorescence molecular tomography (FIG. 33B). […] FIG. 34A depicts the structure of DORL-800. FIGS. 34B and C depict in vivo fluorescence imaging of endogenously expressing subcutaneous lung cancer xenograft tumors following administration of DORL-800. The presence of tumor was confirmed by computed tomography (CT) and histology. DORL-800 was studied for use in intraoperative guidance. FIG. 35 is an image of a SCID Hairless Outbred mouse (SHO) four weeks after DMS-53 luc+ (DOR+) cells were injected directly into the lung."}, "[5]": {"target": "T1, delta opioid receptor (δOR) (Homo sapiens, UniProt P41143)", "T1 construct": "pcDNA-δOR15 vector containing a truncated δOR lacking the final 15 C-terminal amino acids; expressed in transfected cells", "T1 sequence (P41143 1-357 limits assumed)": "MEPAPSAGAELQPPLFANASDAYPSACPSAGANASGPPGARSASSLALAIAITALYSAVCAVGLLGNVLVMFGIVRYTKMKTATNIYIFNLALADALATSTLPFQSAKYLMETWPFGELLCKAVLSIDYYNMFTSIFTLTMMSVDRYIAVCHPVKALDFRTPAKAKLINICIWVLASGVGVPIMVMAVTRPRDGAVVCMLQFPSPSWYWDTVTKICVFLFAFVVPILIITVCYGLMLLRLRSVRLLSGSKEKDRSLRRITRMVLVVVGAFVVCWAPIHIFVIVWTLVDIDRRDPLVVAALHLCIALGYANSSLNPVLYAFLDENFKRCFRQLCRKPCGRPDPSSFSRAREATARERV", "experiment": "Lanthanide time-resolved fluorescence (TRF) competitive binding assay on HCT-116/δOR whole cells against Eu-DTPA-DPLCE", "settings": "HCT-116 cells engineered to express δOR; competed ligand Eu-labeled DPLCE; read-out: Ki (δOR binding affinity)", "description": "The inventors have previously generated an engineered cell line that stably overexpresses the δO R based on the colorectal cancer cell line HCT-116. […] For the LTRF competition binding assays with Dmt-Tic-IR800, the inventors used the engineered HCT-116/δOR cell line since it has a high number of receptors on the cell surface.\nTo determine binding affinity the inventors used a lanthanide time-resolved fluorescence (LTRF) competitive binding assay as described previously.\nFor the competitive binding assays, HCT-116/δOR cells were plated in black wall/white bottom 96-well plates (Perkin Elmer, Cat. #6005060) at a density of 20,000 cells per well and were allowed to grow for 3 days.\nOn the day of the experiment, media were aspirated from all wells and then the cells were rinsed with phosphate buffered saline (PBS) (100 μL/well). […] Ligands were diluted in binding assay buffer (Modified Eagles medium [MEM] (Gibco, Cat. #61100-087), 1 mM 1,10-phenanthroline, 200 mg/L bacitracin, 0.5 mg/L leupeptin, 26 mM NaHCO3, 25 mM HEPES, 0.2% w/v BSA) and samples were tested in octuplicate.\nCells were incubated in the presence of ligands for 1 h at 37° C. and 5% CO2. Following the incubation, cells were washed three times with wash buffer (50 mM Tris-HCl, 0.2% w/v BSA, 30 mM NaCl) (200 μL/well)."}, "[6]": {"settings": "literature statement; cited from earlier work"}, "δOR": {"target": "T2, δOR (Mus musculus, UniProt P32300)", "T2 construct": "from tissue; host or cells: mouse isolated vas deferens", "T2 sequence (P32300 whole entry)": "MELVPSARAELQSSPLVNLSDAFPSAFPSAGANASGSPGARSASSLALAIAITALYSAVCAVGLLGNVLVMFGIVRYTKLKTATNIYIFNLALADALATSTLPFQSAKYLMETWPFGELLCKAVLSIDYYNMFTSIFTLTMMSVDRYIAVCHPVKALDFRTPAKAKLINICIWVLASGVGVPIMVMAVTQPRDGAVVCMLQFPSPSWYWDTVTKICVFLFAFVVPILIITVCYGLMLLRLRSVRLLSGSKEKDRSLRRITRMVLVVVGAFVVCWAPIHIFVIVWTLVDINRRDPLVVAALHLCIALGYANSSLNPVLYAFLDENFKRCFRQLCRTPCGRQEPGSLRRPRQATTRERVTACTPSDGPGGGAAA", "experiment": "Mouse-isolated vas deferens (MVD) assay against δ-agonist DPDPE", "settings": "n=8, read-out: Ke (inhibitory potency)", "text": "(Kramer, T. H.; Davis, P.; Hruby, V. J.; Burks, T. F.; Porreca, F. J. Pharmacol. Exp. Ther. 1993, 266, 577-584)"}, "[7]": {"test_system": "HCT-116/RFP (δOR negative) and HCT-116/δOR tumors", "experiment": "Intravital fluorescence microscopy, dorsal skin-fold window chamber tumor xenograft", "format": "in vivo, mice", "settings": "45 nmol/kg i.v.; HCT-116/RFP (δOR negative) tumor; post tail vein injection", "method": "as §1\nMice containing dorsal skin-fold window chamber tumor xenografts were injected with 45 nmol/kg Dmt-Tic-Cy5 i.v. (FIG. 12) Images were acquired continuously for 15 minutes post-injection and at various time points after. […] Dmt-Tic-Cy5 is taken up and extravasates from the rat GFP vessels within seconds post tail vein injection (top). Dmt-Tic-Cy5 is cleared by 33 minutes post tail vein injection (bottom). Light gray represents the RFP signal from the tumor cells, medium gray represents the GFP signal from the rat microvessels, and dark gray is the Cy5 signal from the ligand. […] Shown are the Cy5 signal from the ligand in dark gray (left images) and overlays of the Cy5 signal and white light channels (right images) pre-injection and 25 minutes, 45 minutes, 60 minutes, 1 hour 25 minutes, and 24 hours post-injection."}, "δ-opioid receptor": {"target": "δ-opioid receptor", "settings": "literature value; cited from earlier work"}}, "data": [{"compound": "Cc1cc(O)cc(C)c1C[C@H](N)C(=O)N1Cc2ccccc2C[C@H]1C(=O)N[C@@H](CCCCNC(=O)CCSC1CC(=O)N(CCNC(=O)CCCCC[N+]2=C(/C=C/C3=C(Oc4ccc(S(=O)(=O)O)cc4)C(=C/C=C4/N(CCCCS(=O)(=O)O)c5ccc(S(=O)(=O)O)cc5C4(C)C)/CCC3)C(C)(C)c3cc(S(=O)(=O)[O-])ccc32)C1=O)C(=O)O", "note": "(stereo partly drawn) [Dmt-Tic-IR800]", "values": [{"measurement": "fold enhancement of the positive tumor (HCT-116/δOR) relative to the negative tumor (HCT-116)", "setting": "[1]; 10 nmol/kg i.v., 24 hours post-injection, Optix MX3, n=4", "result": "~7", "unit": "fold"}, {"measurement": "tumor selectivity in fluorescence image", "setting": "[1]; 10 nmol/kg, 24 h post-administration", "result": "selective for the δOR+ tumor"}, {"measurement": "fold enhancement of the positive tumor (DMS-53) relative to the negative tumor (H1299)", "setting": "[2]; 40 nmol/kg i.v., 24 hours post-injection, Optix MX3, n=4", "result": "~4", "unit": "fold"}, {"measurement": "tumor selectivity in fluorescence image", "setting": "[2]", "result": "selective for the δOR+ tumor"}, {"measurement": "tumor selectivity in fluorescence image", "setting": "[2]; listed as DORL-800", "result": "selective for the DOR+ tumor"}, {"measurement": "blood-brain barrier passage", "setting": "[3]", "result": "does not cross the blood-brain barrier"}, {"measurement": "accumulation in orthotopic tumor", "setting": "[4]", "result": "accumulated specifically in the tumor"}, {"measurement": "Ki", "setting": "[5]", "result": "1.43 ± 0.24", "unit": "nM"}]}, {"compound": "CC1(C)C(/C=C/C2=C(Oc3ccc(S(=O)(=O)O)cc3)C(=C/C=C3/N(CCCCS(=O)(=O)O)c4ccc(S(=O)(=O)[O-])cc4C3(C)C)/CCC2)=[N+](CCCCCC(=O)O)c2ccc(S(=O)(=O)O)cc21", "note": "[Licor IR800CW]", "values": [{"measurement": "toxicity", "setting": "[6]", "result": "non-toxic"}]}, {"compound": "CC[N+]1=C(C=CC=CC=C2N(CCCCCC(=O)NCCN3C(=O)CC(SCCC(=O)NCCCC[C@H](NC(=O)[C@@H]4Cc5ccccc5CN4C(=O)[C@@H](N)Cc4c(C)cc(O)cc4C)C(=O)O)C3=O)c3ccc(S(=O)(=O)O)cc3C2(C)C)C(C)(C)c2cc(S(=O)(=O)[O-])ccc21", "note": "(stereo partly drawn) [ligand 1, Dmt-Tic-Lys(Cy5)-OH]", "values": [{"measurement": "time of maximum probe uptake in the δOR+ tumor", "setting": "[1]; 4.5 nmol/kg i.v., time course 0-168 h", "result": 3, "unit": "h"}, {"measurement": "Kb", "setting": "δOR", "result": 0.037, "unit": "nM"}, {"measurement": "blood-brain barrier passage", "setting": "[3]", "result": "does not cross the blood-brain barrier"}, {"measurement": "Ki", "setting": "[5]", "result": 3, "unit": "nM"}, {"measurement": "time by which probe is cleared from δOR negative tumor", "setting": "[7]", "result": "≤ 33", "unit": "min"}]}, {"compound": "Dmt-Tic-Lys(Ac)-OH", "values": [{"measurement": "Ki", "setting": "δ-opioid receptor", "result": 0.047, "unit": "nM"}]}]}
